What was measured:
cells [1] = conditions: Homo sapiens, MLL
cells [2] = conditions: Homo sapiens, MLL; remark: listed apart in the source
THP-1 = test: cells; conditions: Homo sapiens
MV4-11 = test: cells; conditions: Homo sapiens
MOLM-13 = test: cells; conditions: Homo sapiens

In the case of `CC(C)N(CCCNC(=O)Nc1ccc(C(C)(C)C)cc1)C[C@H]1O[C@@H](n2ccc3c(N)ncnc32)[C@H](O)[C@@H]1O`, the EC50 (cells [1]) is reported as 700 nM, the EC50 (cells [2]) is reported as 700 nM and the EC50 (THP-1) is reported as 4 nM. The EC50 (MV4-11) was 4 nM and the EC50 (MOLM-13) was 4 nM.
For `CC(C)N(C[C@H]1O[C@@H](n2cnc3c(N)ncnc32)[C@H](O)[C@@H]1O)[C@H]1C[C@@H](CCc2nc3cc(C(C)(C)C)ccc3[nH]2)C1` [PINOMETOSTAT], the EC50 (THP-1) was 4 nM, the EC50 (MV4-11) was 4 nM and the EC50 (MOLM-13) was 4 nM.
